# In PubChem BioAssay (NCI):
#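 Where inhibition never reached the appropriate level, the endpoint shown equals the highest concentration tested. Otherwise, values were interpolated linearly from a five-concentration, 48-hour dose response in 96-well plates. GI50 is the concentration that inhibits growth by half. TGI: total growth inhibition.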
# Key:
# Assay in all cases: NCI-60 cell line screen, 48 h
# HOP-92 NSCLC = tested on: HOP-92 NSCLC
# RXF 393 renal = tested on: RXF 393 renal
# SN12C renal = tested on: SN12C renal
# COLO 205 colon = tested on: COLO 205 colon
# U251 CNS = tested on: U251 CNS
# DU-145 prostate = tested on: DU-145 prostate
# OVCAR-5 ovarian = tested on: OVCAR-5 ovarian
# MCF7 breast = tested on: MCF7 breast
# MDA-MB-231 breast = tested on: MDA-MB-231 breast
# A549 NSCLC = tested on: A549 NSCLC
# HOP-62 NSCLC = tested on: HOP-62 NSCLC
# MOLT-4 leukemia = tested on: MOLT-4 leukemia
# MALME-3M melanoma = tested on: MALME-3M melanoma
# SNB-19 CNS = tested on: SNB-19 CNS
# HT29 colon = tested on: HT29 colon
# HCC-2998 colon = tested on: HCC-2998 colon
# NCI-H460 lung = tested on: NCI-H460 lung
# CCRF-CEM leukemia = tested on: CCRF-CEM leukemia
# SF-295 CNS = tested on: SF-295 CNS
# NCI-H226 lung = tested on: NCI-H226 lung
# SK-OV-3 ovarian = tested on: SK-OV-3 ovarian
# CAKI-1 renal = tested on: CAKI-1 renal
# MDA-MB-435 = tested on: MDA-MB-435
# UACC-62 melanoma = tested on: UACC-62 melanoma
# SW-620 colon = tested on: SW-620 colon
# SF-539 CNS = tested on: SF-539 CNS
# TK-10 renal = tested on: TK-10 renal
# PC-3 prostate = tested on: PC-3 prostate
# NCI-H23 lung = tested on: NCI-H23 lung
# SF-268 CNS = tested on: SF-268 CNS
# OVCAR-4 ovarian = tested on: OVCAR-4 ovarian
# 786-0 renal = tested on: 786-0 renal
# BT-549 breast = tested on: BT-549 breast
# T-47D breast = tested on: T-47D breast
# HCT-15 colon = tested on: HCT-15 colon
# A498 renal = tested on: A498 renal
# ACHN renal = tested on: ACHN renal
# NCI/ADR-RES ovarian = tested on: NCI/ADR-RES ovarian
# SNB-75 CNS = tested on: SNB-75 CNS
# OVCAR-8 ovarian = tested on: OVCAR-8 ovarian
# UACC-257 melanoma = tested on: UACC-257 melanoma
# NCI-H522 lung = tested on: NCI-H522 lung
# MDA-MB-468 breast = tested on: MDA-MB-468 breast
# IGROV1 ovarian = tested on: IGROV1 ovarian
# HS 578T breast = tested on: HS 578T breast
# KM12 colon = tested on: KM12 colon
# HL-60(TB) leukemia = tested on: HL-60(TB) leukemia
# EKVX NSCLC = tested on: EKVX NSCLC
# OVCAR-3 ovarian = tested on: OVCAR-3 ovarian
# SK-MEL-28 melanoma = tested on: SK-MEL-28 melanoma
# LOX IMVI melanoma = tested on: LOX IMVI melanoma
# SK-MEL-5 melanoma = tested on: SK-MEL-5 melanoma
# SK-MEL-2 melanoma = tested on: SK-MEL-2 melanoma
# M14 melanoma = tested on: M14 melanoma
# RPMI-8226 leukemia = tested on: RPMI-8226 leukemia
# K-562 leukemia = tested on: K-562 leukemia
# SR leukemia = tested on: SR leukemia
# UO-31 renal = tested on: UO-31 renal
# HCT-116 colon = tested on: HCT-116 colon
compound,measurement,setting,value
CN1CCc2c(sc3ncnc(N/N=C/c4cn(-c5ccccc5)nc4-c4ccc(Cl)cc4)c23)C1,GI50,HOP-92 NSCLC,0.643 µM
same,TGI,HOP-92 NSCLC,49.6 µM
same,GI50,RXF 393 renal,3.56 µM
same,TGI,RXF 393 renal,34.6 µM
same,GI50,SN12C renal,0.34 µM
same,TGI,SN12C renal,> 100 µM
same,GI50,COLO 205 colon,0.406 µM
same,TGI,COLO 205 colon,> 100 µM
same,GI50,U251 CNS,0.688 µM
same,TGI,U251 CNS,> 54.1 µM
same,GI50,DU-145 prostate,1.41 µM
same,TGI,DU-145 prostate,> 100 µM
same,GI50,OVCAR-5 ovarian,0.419 µM
same,TGI,OVCAR-5 ovarian,> 100 µM
same,GI50,MCF7 breast,0.223 µM
same,TGI,MCF7 breast,0.635 µM
same,GI50,MDA-MB-231 breast,0.468 µM
same,TGI,MDA-MB-231 breast,32 µM
same,GI50,A549 NSCLC,0.496 µM
same,TGI,A549 NSCLC,> 100 µM
same,GI50,HOP-62 NSCLC,0.724 µM
same,TGI,HOP-62 NSCLC,> 84.3 µM
same,GI50,MOLT-4 leukemia,0.319 µM
same,TGI,MOLT-4 leukemia,> 100 µM
same,GI50,MALME-3M melanoma,0.999 µM
same,TGI,MALME-3M melanoma,> 100 µM
same,GI50,SNB-19 CNS,3.28 µM
same,TGI,SNB-19 CNS,> 57.3 µM
same,GI50,HT29 colon,0.442 µM
same,TGI,HT29 colon,13.9 µM
same,GI50,HCC-2998 colon,0.5 µM
same,TGI,HCC-2998 colon,34.8 µM
same,GI50,NCI-H460 lung,0.39 µM
same,TGI,NCI-H460 lung,30 µM
same,GI50,CCRF-CEM leukemia,0.504 µM
same,TGI,CCRF-CEM leukemia,> 100 µM
same,GI50,SF-295 CNS,0.403 µM
same,TGI,SF-295 CNS,> 37.7 µM
same,GI50,NCI-H226 lung,1.19 µM
same,TGI,NCI-H226 lung,> 65.9 µM
same,GI50,SK-OV-3 ovarian,> 36.2 µM
same,TGI,SK-OV-3 ovarian,> 76.1 µM
same,GI50,CAKI-1 renal,1.32 µM
same,TGI,CAKI-1 renal,> 66.7 µM
same,GI50,MDA-MB-435,1.61 µM
same,TGI,MDA-MB-435,> 100 µM
same,GI50,UACC-62 melanoma,0.787 µM
same,TGI,UACC-62 melanoma,14.4 µM
same,GI50,SW-620 colon,0.387 µM
same,TGI,SW-620 colon,> 100 µM
same,GI50,SF-539 CNS,0.345 µM
same,TGI,SF-539 CNS,10.7 µM
same,GI50,TK-10 renal,2.47 µM
same,TGI,TK-10 renal,38.3 µM
same,GI50,PC-3 prostate,0.472 µM
same,TGI,PC-3 prostate,> 100 µM
same,GI50,NCI-H23 lung,0.326 µM
same,TGI,NCI-H23 lung,10.8 µM
same,GI50,SF-268 CNS,0.678 µM
same,TGI,SF-268 CNS,> 100 µM
same,GI50,OVCAR-4 ovarian,0.462 µM
same,TGI,OVCAR-4 ovarian,69.9 µM
same,GI50,786-0 renal,0.588 µM
same,TGI,786-0 renal,18 µM
same,GI50,BT-549 breast,2.89 µM
same,TGI,BT-549 breast,> 31.8 µM
same,GI50,T-47D breast,2.59 µM
same,TGI,T-47D breast,> 100 µM
same,GI50,HCT-15 colon,0.39 µM
same,TGI,HCT-15 colon,> 100 µM
same,GI50,A498 renal,> 56.7 µM
same,TGI,A498 renal,> 100 µM
same,GI50,ACHN renal,0.481 µM
same,TGI,ACHN renal,20.4 µM
same,GI50,NCI/ADR-RES ovarian,0.32 µM
same,TGI,NCI/ADR-RES ovarian,1.76 µM
same,GI50,SNB-75 CNS,13.8 µM
same,TGI,SNB-75 CNS,60.8 µM
same,GI50,OVCAR-8 ovarian,0.368 µM
same,TGI,OVCAR-8 ovarian,> 38.5 µM
same,GI50,UACC-257 melanoma,0.473 µM
same,TGI,UACC-257 melanoma,> 100 µM
same,GI50,NCI-H522 lung,0.323 µM
same,TGI,NCI-H522 lung,5.38 µM
same,GI50,MDA-MB-468 breast,0.208 µM
same,TGI,MDA-MB-468 breast,0.595 µM
same,GI50,IGROV1 ovarian,0.379 µM
same,TGI,IGROV1 ovarian,21.1 µM
same,GI50,HS 578T breast,15.6 µM
same,TGI,HS 578T breast,> 89.7 µM
same,GI50,KM12 colon,0.496 µM
same,TGI,KM12 colon,> 100 µM
same,GI50,HL-60(TB) leukemia,0.292 µM
same,TGI,HL-60(TB) leukemia,1.98 µM
same,GI50,EKVX NSCLC,0.313 µM
same,TGI,EKVX NSCLC,> 42.6 µM
same,GI50,OVCAR-3 ovarian,0.242 µM
same,TGI,OVCAR-3 ovarian,6.22 µM
same,GI50,SK-MEL-28 melanoma,5.56 µM
same,TGI,SK-MEL-28 melanoma,> 100 µM
same,GI50,LOX IMVI melanoma,0.305 µM
same,TGI,LOX IMVI melanoma,4.12 µM
same,GI50,SK-MEL-5 melanoma,0.544 µM
same,TGI,SK-MEL-5 melanoma,20.5 µM
same,GI50,SK-MEL-2 melanoma,0.99 µM
same,TGI,SK-MEL-2 melanoma,24.4 µM
same,GI50,M14 melanoma,0.598 µM
same,TGI,M14 melanoma,> 38.7 µM
same,GI50,RPMI-8226 leukemia,0.443 µM
same,TGI,RPMI-8226 leukemia,> 100 µM
same,GI50,K-562 leukemia,0.29 µM
same,TGI,K-562 leukemia,> 100 µM
same,GI50,SR leukemia,2.66 µM
same,TGI,SR leukemia,> 100 µM
same,GI50,UO-31 renal,0.475 µM
same,TGI,UO-31 renal,25.4 µM
same,GI50,HCT-116 colon,0.115 µM
